{"source": "patent US20060078594A1", "about": "“Iron complex” (Conopco, Inc., d/b/a UNILEVER, priority 2004, published 2006)", "test": "Iron dialysability assay (in vitro dialysable iron from fortified dough)", "details": "dough from whole-grain wheat flour fortified with 50 mg/kg iron; normalized to dough fortified with ferrous sulfate; means of 4-5 experiments; ** = significantly different from ferrous sulfate (p < 0.05)", "description": "The crude mass was aliquoted and small lumps were formed (10 g±0.5 g) which were used for the iron dialysability assay.\nAll glassware and paddles were cleaned with 10% HNO3 (24 hours) and rinsed five times with Milli-Q® water. […] The resulting suspension was poured into a VanKel Vial and the blender beaker was rinsed twice with Milli-Q® water (20 mL) and the rinse water was added to the suspension. The stirring speed of the paddle was adjusted to 200 rpm at 37° C. […] The pH of the suspension was adjusted to 2.0 with 6N HCl and a Pepsin-HCl solution (5 mL) was added. […] A clean dialysis membrane (20 cm, Spectra/Por7, Molecular weight cut-off 8 kD) was filled with a determined amount of 0.1M NaCO3 solution and adjusted to a total volume of 25 mL with Milli-Q® water. The dialysis bag was placed in the Erlenmeyer flask containing aliquot (iii), and shaken at 37° C. at 100 beats/min for 30 minutes while the pH was being monitored. […] After that time, the contents of the dialysis bag were recovered for quantitative analysis of the iron content.\nTotal iron content of yeast and wheat flour was determined by inductively coupled plasma atomic emission spectrometry. […] The emission of the individual elements was measured at specific wavelengths and concentrations were quantified from standard solutions. […]"}
{"compound": "O=S(=O)([O-])[O-].[Fe+2]", "note": "[Iron sulphate]", "values": [{"measurement": "Relative availability", "result": 1.0}]}
